Results: ChEMBL document CHEMBL1201862, “PubChem BioAssay data set” (2004)
The source made the active and inactive calls.

Tests used:
[1] = target: Beta-2 adrenergic receptor (Homo sapiens, UniProt P07550); assay: ADRB2 activation measured by internalization – cell-based, FAP fluorogen, flow cytometry, cherry pick 1, dose response (AID 588763); type: functional
HeLa = assay: ATP-based viability loss in HeLa cells – cell-based, CellTiter-Glo luminescence, cherry-pick samples, cytotoxicity control for MITF activator project, dose response (AID 540259); type: functional; details: Homo sapiens
[2] = rise of 2N DNA cells, HeLa – IC50, dose response (AID 1117349); type: functional, cell-based
[3] = rise of 4N DNA cells, HeLa – IC50, dose response (AID 1117351); type: functional, cell-based
[4] = cytotoxicity toward HT-29 cells – cell-based, CellTiter-Glo luminescence, IC50, dose response (AID 1117330); type: functional
[5] = microbe, parasite or virus in culture; type: functional; details: Mycobacterium tuberculosis
[6] = target: T1, Methionyl-tRNA synthetase, putative (Trypanosoma brucei brucei, UniProt Q38C91); type: functional, Trypanosoma brucei brucei strain 927/4 GUTat10.1
T1 sequence (Q38C91 whole entry): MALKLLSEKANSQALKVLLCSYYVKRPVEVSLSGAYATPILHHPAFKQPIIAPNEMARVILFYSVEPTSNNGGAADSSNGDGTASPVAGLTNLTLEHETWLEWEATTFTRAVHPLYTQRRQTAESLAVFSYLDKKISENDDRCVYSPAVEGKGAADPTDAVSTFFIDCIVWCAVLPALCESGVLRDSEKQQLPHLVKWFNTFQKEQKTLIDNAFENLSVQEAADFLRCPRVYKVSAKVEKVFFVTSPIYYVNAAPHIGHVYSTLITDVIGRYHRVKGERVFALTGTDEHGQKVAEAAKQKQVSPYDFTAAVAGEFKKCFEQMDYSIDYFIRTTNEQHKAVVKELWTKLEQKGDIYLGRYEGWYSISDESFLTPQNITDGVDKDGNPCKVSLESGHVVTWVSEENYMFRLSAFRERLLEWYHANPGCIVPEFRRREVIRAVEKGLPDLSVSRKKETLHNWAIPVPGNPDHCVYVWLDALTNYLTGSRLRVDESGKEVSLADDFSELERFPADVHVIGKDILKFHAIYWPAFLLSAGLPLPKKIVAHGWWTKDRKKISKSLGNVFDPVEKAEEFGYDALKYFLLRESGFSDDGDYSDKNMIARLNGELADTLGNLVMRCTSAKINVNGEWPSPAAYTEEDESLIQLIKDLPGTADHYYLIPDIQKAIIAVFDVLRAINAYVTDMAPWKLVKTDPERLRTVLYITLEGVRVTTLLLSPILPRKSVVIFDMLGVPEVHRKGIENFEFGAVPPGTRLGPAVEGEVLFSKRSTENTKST

[7] = target: T1, Methionyl-tRNA synthetase, putative; type: functional, Trypanosoma brucei brucei strain 927/4 GUTat10.1; remark: listed apart in the source
[8] = target: T2, Polyadenylate-binding protein 1 (Homo sapiens, UniProt P11940); assay: MLLE binding blockers, Cy5 peptide tracer – biochemical, fluorescence polarization, Cy5-PAM2 peptide, secondary, miRNA deadenylation inhibitor project, dose response (AID 602260); type: functional; details: read-out: IC50_Mean
T2 sequence (P11940 whole entry, the tested form may be a part): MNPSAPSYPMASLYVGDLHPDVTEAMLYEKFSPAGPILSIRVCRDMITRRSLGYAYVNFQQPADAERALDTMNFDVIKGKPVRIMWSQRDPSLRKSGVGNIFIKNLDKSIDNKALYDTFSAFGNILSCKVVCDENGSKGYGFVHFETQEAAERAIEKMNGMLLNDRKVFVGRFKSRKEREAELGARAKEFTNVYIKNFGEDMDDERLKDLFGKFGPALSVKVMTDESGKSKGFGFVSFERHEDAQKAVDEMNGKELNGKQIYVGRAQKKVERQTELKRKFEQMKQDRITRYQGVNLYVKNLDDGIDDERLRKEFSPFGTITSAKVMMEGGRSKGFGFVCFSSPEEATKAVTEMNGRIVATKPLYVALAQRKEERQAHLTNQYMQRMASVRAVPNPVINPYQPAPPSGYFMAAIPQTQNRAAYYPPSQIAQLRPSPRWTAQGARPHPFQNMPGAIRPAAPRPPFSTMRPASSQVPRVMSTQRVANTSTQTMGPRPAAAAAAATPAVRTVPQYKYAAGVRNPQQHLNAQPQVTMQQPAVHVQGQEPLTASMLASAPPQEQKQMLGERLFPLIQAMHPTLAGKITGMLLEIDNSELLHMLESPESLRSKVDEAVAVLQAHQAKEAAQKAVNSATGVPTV

[9] = target: T2, Polyadenylate-binding protein 1; assay: MLLE domain peptide-binding blockers, IC50 – biochemical, fluorescence polarization, FITC-PAM2 peptide, dose response (AID 602259); type: functional; details: read-out: IC50_Mean
[10] = Counterscreen for inhibitors of Trypanosoma brucei methionyl tRNA synthetase (MetRS): Luminescence-based cell-based high throughput dose response assay to identify compounds that are cytotoxic to Jurkat human T lymphocyte cells.; type: functional
cells = type: functional
Vero [11] = assay: mammalian cell viability reduction – secondary assay, cytotoxicity control for West Nile virus antiviral project, dose response (AID 1650); type: functional; details: Chlorocebus sabaeus
Vero [12] = assay: cells; type: functional; details: Chlorocebus sabaeus
[13] = target: Eukaryotic translation initiation factor 4E (Mus musculus, UniProt P63073); assay: blockers of eIF4G binding by eIF4E – biochemical, TR-FRET, dose response (AID 855); type: functional;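 note: potency for disrupting eIF4E binding to eIF4GI seen as loss of FRET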
Eukaryotic translation initiation factor 4E, sequence (P63073 whole entry): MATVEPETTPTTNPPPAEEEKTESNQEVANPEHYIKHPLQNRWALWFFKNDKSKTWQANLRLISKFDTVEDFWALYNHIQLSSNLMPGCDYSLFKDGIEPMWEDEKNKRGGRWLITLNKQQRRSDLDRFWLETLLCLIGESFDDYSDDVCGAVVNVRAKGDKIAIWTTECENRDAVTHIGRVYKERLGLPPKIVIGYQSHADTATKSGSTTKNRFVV

Leucine aminopeptidase = target: T3, Leucine aminopeptidase (Plasmodium falciparum 3D7, UniProt Q8IL11); assay: P. falciparum M17LAP inhibitors, primary screen, biochemical, fluorogenic H-Leu-NHMec substrate, 1536-well (AID 1619); type: functional
T3 sequence (Q8IL11 whole entry): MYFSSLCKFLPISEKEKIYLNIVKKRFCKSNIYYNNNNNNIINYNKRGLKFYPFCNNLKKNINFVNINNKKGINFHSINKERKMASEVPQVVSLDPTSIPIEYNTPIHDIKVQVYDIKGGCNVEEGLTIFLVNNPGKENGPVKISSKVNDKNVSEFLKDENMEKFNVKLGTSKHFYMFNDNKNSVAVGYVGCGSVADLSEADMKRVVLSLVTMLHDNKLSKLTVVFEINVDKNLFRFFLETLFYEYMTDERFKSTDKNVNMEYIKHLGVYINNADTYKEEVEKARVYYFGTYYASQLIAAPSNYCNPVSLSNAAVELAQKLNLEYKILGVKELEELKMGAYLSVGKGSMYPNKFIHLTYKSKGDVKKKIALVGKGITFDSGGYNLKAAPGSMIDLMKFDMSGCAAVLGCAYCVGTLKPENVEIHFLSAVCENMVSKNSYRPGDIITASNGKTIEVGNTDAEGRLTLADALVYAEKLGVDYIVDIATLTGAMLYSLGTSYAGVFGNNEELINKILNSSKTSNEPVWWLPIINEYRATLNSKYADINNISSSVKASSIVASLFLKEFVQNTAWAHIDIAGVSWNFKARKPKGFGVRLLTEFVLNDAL

[14] = blockers of bursicon-stimulated LGR2 cAMP reporter – cell-based, HEK293, CRE-luciferase reporter, cherry pick, set 2, dose response (AID 743343); type: functional;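 note: transfected cells were stimulated with diluted bursicon conditioned medium after compound addition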
[15] = toxicity toward HepG2 liver cells – cell-based, plate reader, cherry-pick, antagonist series, cytotoxicity control, dose response (AID 743416); type: functional
[16] = viability loss in HEK293 cells – cell-based, plate reader, cherry-picked samples, cytotoxicity control, dose response (AID 743446); type: functional
[17] = target: T4, Calpain-2 catalytic subunit (Sus scrofa, UniProt P43367); assay: m-calpain protease blockers, concentration series – biochemical, fluorogenic peptide substrate, dose response (AID 1420); type: functional
T4 sequence (P43367 whole entry): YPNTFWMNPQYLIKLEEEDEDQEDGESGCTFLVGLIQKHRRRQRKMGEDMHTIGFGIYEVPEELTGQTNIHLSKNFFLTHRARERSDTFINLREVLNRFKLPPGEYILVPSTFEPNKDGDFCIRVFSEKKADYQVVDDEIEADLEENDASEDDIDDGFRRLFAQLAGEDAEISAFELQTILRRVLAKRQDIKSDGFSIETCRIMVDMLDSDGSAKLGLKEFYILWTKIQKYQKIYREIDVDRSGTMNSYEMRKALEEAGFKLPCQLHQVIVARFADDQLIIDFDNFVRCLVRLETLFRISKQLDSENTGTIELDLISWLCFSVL

[18] = blockade of melanocortin 4 receptor signaling – cell-based, plate reader, cherry pick, counter-screen for LGR2 antagonist project, dose response (AID 743444); type: functional;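 note: transfected HEK 293 cells stimulated with alpha-MSH peptide; potency of inhibitors of the alpha-MSH evoked signal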

Beta-2 adrenergic receptor, sequence (P07550 whole entry): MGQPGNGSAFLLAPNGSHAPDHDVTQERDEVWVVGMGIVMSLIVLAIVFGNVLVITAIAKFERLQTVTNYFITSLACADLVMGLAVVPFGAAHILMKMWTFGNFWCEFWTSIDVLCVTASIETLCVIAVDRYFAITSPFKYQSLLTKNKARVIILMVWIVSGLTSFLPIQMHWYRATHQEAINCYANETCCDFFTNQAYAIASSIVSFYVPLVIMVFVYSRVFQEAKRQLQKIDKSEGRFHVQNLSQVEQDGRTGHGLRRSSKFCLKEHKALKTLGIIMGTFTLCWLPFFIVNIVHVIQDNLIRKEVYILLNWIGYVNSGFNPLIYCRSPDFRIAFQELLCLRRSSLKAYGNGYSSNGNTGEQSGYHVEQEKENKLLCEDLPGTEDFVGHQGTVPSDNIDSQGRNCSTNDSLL

CCCc1ccc(OCc2nc(-c3ccc(NC(=O)c4cccs4)cc3)no2)cc1
EC50 [1]: 0.539 µM (active)
AC50 (HeLa): 49.1 µM (active)

CC(C)=CCNc1ncnc2c1ncn2[C@@H]1O[C@H](CO)[C@@H](O)[C@H]1O [RIBOPRINE]
IC50 [2]: > 10 µM (inactive)
IC50 [3]: > 10 µM (inactive)
IC50 [4]: > 20 µM (inactive)

NC(=O)c1cccc(-c2cc(Nc3ccc(OC(F)(F)F)cc3)ncn2)c1
CC50 [5]: > 40 µM (active)

O=C(CSc1n[nH]c2c3ccccc3nc-2n1)Nc1ccc2c(c1)OCO2
IC50 [6]: 1.57 µM (active)
IC50 [7]: 4.39 µM (active)
IC50 [8]: > 66 µM (inactive)
IC50 [9]: > 66 µM (inactive)
IC50 [10]: 83.3 µM (inactive)

Oc1ccccc1-c1nnc(COc2ccccc2)o1
CC50 [5]: > 40 µM (active)
IC50 (cells): 8.84 µM (active)

Cc1ccc(/C=C/C(O)=C2/C(=O)N(C)C3(C)CC2c2ccccc2O3)cc1 (stereo not given)
CC50 (Vero [11]): 41 µM (active)
CC50 (Vero [12]): 15.4 µM (active)
IC50 [13]: > 64 µM (inactive)

O=C(O)CCc1nnc(SCC(=O)Nc2cccc(C(F)(F)F)c2)nc1O
IC50 (Leucine aminopeptidase): 6.64 µM (active)

CCCN(CCC)CCCNC(=O)c1cc2cc3ccc(Cl)cc3nc2o1
CC50 (Vero [11]): > 100 µM (active)

O=C(c1ccccc1)c1ccc2c(c1)N=C1CCCC(O)=C1C1c3ccccc3C(=O)N21 (stereo not given)
CC50 [5]: 28.9 µM (active)

Cc1ccccc1Cn1ccc(NC(=O)c2nn(C)cc2[N+](=O)[O-])n1
CC50 (Vero [11]): 12.1 µM (active)

COC(=O)c1ccc2nc(NC(=O)C(C)(C)C)sc2c1
AC50 [14]: 5.77 µM (active)
AC50 [15]: > 52 µM (inactive)
AC50 [16]: > 52 µM (inactive)
IC50 [17]: 24.1 µM (not active)
AC50 [18]: 5.69 µM (active)
